Consider one compound from publication PMC6848086, “Light on the cell cycle of the non-photosynthetic bacterium Ramlibacter tataouinensis” (Scientific Reports, 2019).

The target of this assay is T1, RtBphP2 (Ramlibacter tataouinensis, UniProt F5Y6C4).
T1 construct: gene Rta_28950; full-length; His6 tag (pBAD/HisB); co-expressed with Bradyrhizobium sp; ORS278 heme oxygenase in E. coli TOP10; dimer
Description: gel electrophoresis with zinc fluorescence; absorption spectra of purified holoprotein. The format is binding. The note with it: covalent; chromophore formed in E. coli by co-expressed heme oxygenase.

T1 sequence (F5Y6C4 entry or part of it): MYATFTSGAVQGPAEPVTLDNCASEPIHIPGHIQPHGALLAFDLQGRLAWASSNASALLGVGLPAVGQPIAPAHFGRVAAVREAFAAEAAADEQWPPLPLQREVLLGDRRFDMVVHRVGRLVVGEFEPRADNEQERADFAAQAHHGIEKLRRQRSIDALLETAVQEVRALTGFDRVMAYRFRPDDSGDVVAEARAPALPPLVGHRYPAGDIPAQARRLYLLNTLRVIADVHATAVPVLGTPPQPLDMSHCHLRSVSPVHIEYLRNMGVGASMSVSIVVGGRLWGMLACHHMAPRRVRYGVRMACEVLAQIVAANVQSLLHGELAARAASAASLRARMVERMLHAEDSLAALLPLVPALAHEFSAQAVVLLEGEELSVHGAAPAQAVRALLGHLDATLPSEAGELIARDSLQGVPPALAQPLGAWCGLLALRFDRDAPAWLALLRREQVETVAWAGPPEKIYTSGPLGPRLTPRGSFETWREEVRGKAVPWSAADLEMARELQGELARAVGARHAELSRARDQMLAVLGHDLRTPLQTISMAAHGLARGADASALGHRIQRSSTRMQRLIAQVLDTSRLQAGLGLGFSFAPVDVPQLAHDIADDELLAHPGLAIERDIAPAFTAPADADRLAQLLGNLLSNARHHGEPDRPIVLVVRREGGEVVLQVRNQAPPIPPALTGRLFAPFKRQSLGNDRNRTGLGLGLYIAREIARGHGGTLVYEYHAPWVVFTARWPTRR

Turning to `C=CC1=C(C)/C(=C/C2=NC(=C\c3[nH]c(/C=C4\NC(=O)C(C)=C4C=C)c(C)c3CCC(=O)O)/C(CCC(=O)O)=C2C)NC1=O` [biliverdin], the “gel electrophoresis with zinc fluorescence; absorption spectra of purified holop” value was “zinc fluorescence demonstrated that the biliverdin (BV) is covalently bound in both proteins”.
